Laboratory results taken from patent US20260217763A1, “Novel Peptide and Use Thereof” (Zincure Corp., priority 2022, published 2026).
“Also recorded” adds a separate entry of the source.

What was measured:
Type in all cases: cell-based
[1] = test system: H4 cell lines (GL-H4) expressing GFP-linked LC3; assay: Analysis of autophagic flow blocked by bafilomycin A-1 (LC3-GFP spots); conditions: bafilomycin (Baf A1) 100 nM alone, GL-H4 cells
Experimental: FIGS. 2A to 2C are series of fluorescence micrographs of LC3-GFP spots 12 h after treating H4 cell line (GL-H4) that stably overexpresses GFP-LC3 protein with various variant alloferon peptides according to one embodiment of the present invention in combination with bafilomycin at a concentration of 20 μM, showing that autophagic flux blocked by bafilomycin A-1 is restored by the variant alloferon peptides according to one embodiment of the present invention. FIGS. 2D to 2F are graphs showing quantification of the fluorescence intensity of LC3-GFP spots 12 h after treatment of the GL-H4 cell line with the variant alloferon peptides according to one embodiment of the present invention in combination with bafilomycin at a concentration of 20 μM.
H4 cell line (GL-H4) and HEK293T cell line permanently transfected with GFP-LC3 plasmid were used in the present invention. The cell culture medium was Minimum Essential Medium (MEM, WellGene) supplemented with 10% fetal bovine serum (Hyclone, USA) and antibiotic and antifungal mixture (WellGene, Korea) and cultured in a cell culture machine at 37° C. and 5% CO2.
To investigate the effect of peptides comprising the amino acid sequences designated as SEQ ID NO: 3 to 16 on autophagic flow, the present inventors treated H4 cell lines (GL-H4) expressing GFP-linked LC3 with the peptides (20 μM) and/or the autophagic inhibitor Bafilomycin A-1 (Baf A1, 100 nM) to inhibit autophagy, and then the effect of the variant alloferon peptides according to one embodiment of the present invention was investigated by fluorescence microscopy analysis.

[2] = test system: EGFP-SOD1 G93A aggregates in HEK293T cell line; assay: SOD1 protein aggregates after SOD1 overexpression, Western blot; conditions: bafilomycin 100 nM alone compared to the control
Experimental: (§1) FIG. 3A is a result of Western blot analysis of the level of SOD1 protein expression in protein samples obtained 18 h after treatment of HEK293T cells transfected to express SOD1 with 100 nM bafilomycin A1 alone or in combination with 30 μM of some variant alloferon peptides according to one embodiment of the present invention, for investigating the degradation of SOD1 protein aggregates by treatment with some variant alloferon peptides (DALS1, DAL-VS_V(−Q), DAL1, and DALV2) according to one embodiment of the present invention. FIG. 3B is a graph representing the results of quantifying relative expression of the SOD1 protein. In FIG. 3B, * indicates a significant difference compared to the treatment with bafilomycin alone (* p<0.05).
(§2) The present inventors then investigated whether some of the variant peptides (DALS1, DALVS_V, DAL1, DALV2) comprising the amino acid sequences designated as SEQ ID NO: 3 through 16 could resolve SOD1 aggregates that formed after transient transfection of SOD1 protein into the 293T cell line. To this end, EGFP-SOD1 G93A DNA was transiently transfected into the HEK293T cell line using Lipofectamine 2000. After transfection, the cell lines were incubated in a cell culture machine at 37° C. and 5% CO2 for 30 h, and the culture medium was replaced with Minimum Essential Medium (MEM, Gibco, USA). Subsequently, the cells were pretreated with 100 nM bafilomycin for 30 min, which were then treated with μM variant alloferon peptide and incubated for 18 h. After that, proteinase inhibitors and phosphatase inhibitors (2 μg/ml aprotinin, 2 μg/ml leupeptin, 1 μg/ml pepstatin A, 1 mM phenyl-methylsulfonyl fluoride (PMSF), 1 mM Na3 VO4, 5 mM NaF and 10 mM Na4P2O7) were put into a 6-well culture dish at 200 μl per well to lyse the cells. The obtained cell lysate was first left at 30 min for 4° C. Then, it was subjected to protein quantification using BCA protein assay kit (Pierce Biotechnology, USA), and centrifuged at 17,000×g for 20 min, where the supernant was discarded and only the cell debris was taken to obtain protein. Subsequently, 5× sample buffer (300 mM Tris, pH 6.8, 10% SDS, 50% Glycerol, 0.1% BPB, 2.5% Mercaptoethanol, 100 mM DTT) was mixed with the quantified sample, denatured at 95° C. for 5 min, and prepared for analysis. Then, electrophoresis was performed using 8% to 15% SDS-polyacrylamide gel, and the proteins separated by their sizes were transferred to polyvinylidene difluoride (PVDF) membranes (Millipore, USA). The protein-transferred membranes were then blocked with 3% skim milk powder in TBST for 1 h. […] Protein signals were detected using enhanced chemiluminescence (INTRON Biotechnology, South Korea) and a bio-imaging system (MF-Chemibis, Shimadzu Scientific Korea Corporation, South Korea).

[3] = test system: EGFP-Tau P301L aggregates in HEK293T cell line; assay: Mutant tau protein aggregates after overexpression, Western blot; conditions: bafilomycin 100 nM alone compared to control
Experimental: as §1, with “FIG. 4A” for “FIG. 3A”, “of tau” for “of SOD1”, “express tau protein” for “express SOD1”, “FIG. 4B” for “FIG. 3B”, “the tau” for “the SOD1”, “protein. […]” for “protein. In FIG. 3B, * indicates a significant difference compared to the treatment with bafilomycin alone (* p<0.05).”
The present inventors then investigated whether some of the variant peptides (DALS1, DALVS_V, DAL1, DALV2) comprising the amino acid sequences designated as SEQ ID NO: 3 through 16 could resolve SOD1 aggregates that formed after transient transfection of SOD1 protein into the 293T cell line. […] Then, it was subjected to protein quantification using BCA protein assay kit (Pierce Biotechnology, USA), and centrifuged at 17,000×g for 20 min, where the supernant was discarded and only the cell debris was taken to obtain protein. Subsequently, 5× sample buffer (300 mM Tris, pH 6.8, 10% SDS, 50% Glycerol, 0.1% BPB, 2.5% Mercaptoethanol, 100 mM DTT) was mixed with the quantified sample, denatured at 95° C. for 5 min, and prepared for analysis. […]

[4] = test system: EGFP-α-synuclein A53T aggregates in HEK293T cell line; assay: α-synuclein protein aggregates after overexpression, Western blot; conditions: bafilomycin 100 nM alone compared to the control
Experimental: FIG. 5 is a result of Western blot analysis of the level of α-synuclein protein expression in protein samples obtained 18 h after treatment of HEK293T cells transfected to express α-synuclein with 100 nM bafilomycin A1 alone or in combination with 30 µM of some variant alloferon peptides according to one embodiment of the present invention, for investigating the degradation of α-synuclein protein aggregates by treatment with some variant alloferon peptides (DALS1, DAL-VS_V(−Q), DAL1, and DALV2) according to one embodiment of the present invention.
as §2, with “After that, proteinase inhibitors and phosphatase inhibitors (2 μg/ml aprotinin, 2 μg/ml leupeptin, 1 μg/ml pepstatin A, 1 mM phenyl-methylsulfonyl fluoride (PMSF), 1 mM Na3 VO4, 5 mM NaF and 10 mM Na4P2O7) were put into a 6-well culture dish at 200 μl per well to lyse the cells. The obtained cell lysate was first left at 30 min for 4° C.” left out, “analysis.” for “analysis. Then, electrophoresis was performed using 8% to 15% SDS-polyacrylamide gel, and the proteins separated by their sizes were transferred to polyvinylidene difluoride (PVDF) membranes (Millipore, USA). The protein-transferred membranes were then blocked with 3% skim milk powder in TBST for 1 h.”, “Korea). […]” for “Korea).”

[5] = test system: GFP-mHttQ74 aggregates in HEK293T cell line; assay: Mutant huntingtin protein aggregates after overexpression, Western blot; conditions: bafilomycin 100 nM alone compared to the control
Experimental: FIG. 6 is a result of Western blot analysis of the level of mutant huntingtin protein expression in protein samples obtained 18 h after treatment of HEK293T cells transfected to express mutant huntingtin protein with 100 nM bafilomycin A1 alone or in combination with 30 μM of some variant alloferon peptides according to one embodiment of the present invention, for investigating the degradation of mutant huntingtin protein aggregates by treatment with some variant alloferon peptides (DALS1, DAL-VS_V(−Q), DAL1, and DALV2) according to one embodiment of the present invention.
as §2, with “After that, proteinase inhibitors and phosphatase inhibitors (2 μg/ml aprotinin, 2 μg/ml leupeptin, 1 μg/ml pepstatin A, 1 mM phenyl-methylsulfonyl fluoride (PMSF), 1 mM Na3 VO4, 5 mM NaF and 10 mM Na4P2O7) were put into a 6-well culture dish at 200 μl per well to lyse the cells. The obtained cell lysate was first left at 30 min for 4° C.” left out, “analysis.” for “analysis. Then, electrophoresis was performed using 8% to 15% SDS-polyacrylamide gel, and the proteins separated by their sizes were transferred to polyvinylidene difluoride (PVDF) membranes (Millipore, USA). The protein-transferred membranes were then blocked with 3% skim milk powder in TBST for 1 h.”, “Korea). […]” for “Korea).”

CO/C1=C\C(C)=C\[C@@H](C)[C@@H](O)[C@@H](C)C/C(C)=C/C=C/[C@H](OC)[C@@H]([C@@H](C)[C@@H](O)[C@H](C)[C@@]2(O)C[C@@H](O)[C@H](C)[C@@H](C(C)C)O2)OC1=O [bafilomycin, Bafilomycin A-1, reference compound]
number and size of LC3 spots [1]: significantly increased; also recorded: significant increase in the number and size of LC3 spots
SOD1 protein aggregates [2]: increased
mutant tau protein aggregates [3]: increased
α-synuclein protein aggregates [4]: increased
mutant huntingtin protein aggregates [5]: increased
